From ChEMBL document CHEMBL1201862, “PubChem BioAssay data set” (2004)
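The compound was tested at five concentrations on cells cultured in 96-well plates, with a 48-hour exposure period. The concentration for 50% growth inhibition is given as GI50.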 Active and inactive are the calls of the source. No stated cut-off is given here; in the data, active = GI50 up to about 1.1 µM and inactive = higher.

How the values were obtained:
Assay in all cases: inhibition of tumour cell growth, NCI panel, 48 h
T47D = tested on: T47D
MCF7 = tested on: MCF7
SF-268 = tested on: SF-268
NCI-H23 = tested on: NCI-H23
HOP-92 = tested on: HOP-92
EKVX = tested on: EKVX
NCI-H226 = tested on: NCI-H226
A549 = tested on: A549
UACC-257 = tested on: UACC-257
786-0 = tested on: 786-0
UO-31 = tested on: UO-31
PC-3 = tested on: PC-3
HL-60 = tested on: HL-60
SK-MEL-5 = tested on: SK-MEL-5
MDA-N = tested on: MDA-N
IGROV-1 = tested on: IGROV-1
NCI-H460 = tested on: NCI-H460
HOP-62 = tested on: HOP-62
SNB-75 = tested on: SNB-75
RXF 393 = tested on: RXF 393
SF-539 = tested on: SF-539
K562 = tested on: K562
KM12 = tested on: KM12
RPMI-8226 = tested on: RPMI-8226
SW-620 = tested on: SW-620
U-251 = tested on: U-251
SK-MEL-2 = tested on: SK-MEL-2
HCT-116 = tested on: HCT-116
ACHN = tested on: ACHN
SK-OV-3 = tested on: SK-OV-3
NCI-H522 = tested on: NCI-H522
HT-29 = tested on: HT-29
Hs-578T = tested on: Hs-578T
MOLT-4 = tested on: MOLT-4
COLO 205 = tested on: COLO 205
Malme-3M = tested on: Malme-3M
LOX IMVI = tested on: LOX IMVI
BT-549 = tested on: BT-549
HCT-15 = tested on: HCT-15
MDA-MB-435 = tested on: MDA-MB-435
MDA-MB-231 = tested on: MDA-MB-231
SK-MEL-28 = tested on: SK-MEL-28
NCI/ADR-RES = tested on: NCI/ADR-RES
OVCAR-5 = tested on: OVCAR-5
SF-295 = tested on: SF-295
OVCAR-8 = tested on: OVCAR-8
OVCAR-4 = tested on: OVCAR-4
SN12C = tested on: SN12C
M14 = tested on: M14
SR = tested on: SR
SNB-19 = tested on: SNB-19
CAKI-1 = tested on: CAKI-1
HCC 2998 = tested on: HCC 2998
UACC-62 = tested on: UACC-62
TK-10 = tested on: TK-10
A498 = tested on: A498
CCRF-CEM = tested on: CCRF-CEM
OVCAR-3 = tested on: OVCAR-3
DU-145 = tested on: DU-145

For `N#CC1CCN2N=C(c3ccccc3)SC12c1ccccc1` (configuration not stated), the GI50 (T47D) was 24.5 µM (inactive), the GI50 (MCF7) was 31.1 µM (inactive) and the GI50 (SF-268) was > 100 µM (inactive). The GI50 (NCI-H23) was 32 µM (inactive), the GI50 (HOP-92) was 58.1 µM (inactive) and the GI50 (EKVX) was 18.8 µM (inactive). For the same compound, the GI50 (NCI-H226) was 58.1 µM (inactive), the GI50 (A549) was 23.7 µM (inactive) and the GI50 (UACC-257) was 39.3 µM (inactive). The GI50 (786-0) was 89.1 µM (inactive), the GI50 (UO-31) was 35.1 µM (inactive) and the GI50 (PC-3) was 35.7 µM (inactive). For the same compound, the GI50 (HL-60) was 32.9 µM (inactive), the GI50 (SK-MEL-5) was 34.4 µM (inactive) and the GI50 (MDA-N) was 54.7 µM (inactive). The GI50 (IGROV-1) was > 100 µM (inactive), the GI50 (NCI-H460) was 26.1 µM (inactive) and the GI50 (HOP-62) was > 100 µM (inactive). For the same compound, the GI50 (SNB-75) was > 100 µM (inactive), the GI50 (RXF 393) was 31.3 µM (inactive) and the GI50 (SF-539) was 78.2 µM (inactive). The GI50 (K562) was 28.6 µM (inactive), the GI50 (KM12) was 48.6 µM (inactive) and the GI50 (RPMI-8226) was 26.3 µM (inactive). The GI50 (SW-620) was 39.4 µM (inactive), the GI50 (U-251) was 44 µM (inactive) and the GI50 (SK-MEL-2) was 53.3 µM (inactive). For the same compound, the GI50 (HCT-116) was 35.2 µM (inactive), the GI50 (ACHN) was 21.1 µM (inactive) and the GI50 (SK-OV-3) was > 100 µM (inactive). The GI50 (NCI-H522) was 46.2 µM (inactive), the GI50 (HT-29) was 32.1 µM (inactive) and the GI50 (Hs-578T) was 88.3 µM (inactive). The GI50 (MOLT-4) was 17.5 µM (inactive), the GI50 (COLO 205) was 40.7 µM (inactive) and the GI50 (Malme-3M) was > 100 µM (inactive). For the same compound, the GI50 (LOX IMVI) was 51.9 µM (inactive), the GI50 (BT-549) was 43 µM (inactive) and the GI50 (HCT-15) was 38.5 µM. The GI50 (MDA-MB-435) was 61.4 µM (inactive), the GI50 (MDA-MB-231) was > 100 µM (inactive) and the GI50 (SK-MEL-28) was > 100 µM (inactive). The GI50 (NCI/ADR-RES) was 32.9 µM (inactive), the GI50 (OVCAR-5) was > 100 µM (inactive) and the GI50 (SF-295) was 60.5 µM (inactive). For the same compound, the GI50 (OVCAR-8) was 76.6 µM (inactive), the GI50 (OVCAR-4) was 76.7 µM (inactive) and the GI50 (SN12C) was 40.4 µM (inactive). For the same compound, the GI50 (M14) was 45.6 µM (inactive), the GI50 (SR) was 37.1 µM (inactive) and the GI50 (SNB-19) was > 100 µM (inactive). The GI50 (CAKI-1) was 35.4 µM (inactive), the GI50 (HCC 2998) was 26.7 µM (inactive) and the GI50 (UACC-62) was 4.91 µM (inactive). For the same compound, the GI50 (TK-10) was > 100 µM (inactive).
`O=[N+]([O-])C(=C1Nc2ccccc2N1)/C(Cl)=C(/Cl)N1CCOCC1` was tested, and the GI50 (T47D) was 15.1 µM (inactive), the GI50 (MCF7) was 45.8 µM (inactive) and the GI50 (SF-268) was 22.6 µM (inactive). For the same compound, the GI50 (NCI-H23) was 29.3 µM (inactive), the GI50 (EKVX) was > 100 µM (inactive) and the GI50 (NCI-H226) was > 100 µM (inactive). The GI50 (A549) was > 100 µM (inactive), the GI50 (UACC-257) was > 100 µM (inactive) and the GI50 (786-0) was 98.9 µM (inactive). For the same compound, the GI50 (UO-31) was > 100 µM (inactive), the GI50 (PC-3) was 87.7 µM (inactive) and the GI50 (MDA-N) was > 100 µM (inactive). For the same compound, the GI50 (NCI-H460) was > 100 µM (inactive), the GI50 (HOP-62) was 97.9 µM (inactive) and the GI50 (SNB-75) was 97.7 µM (inactive). The GI50 (SF-539) was > 100 µM (inactive), the GI50 (K562) was 43.3 µM (inactive) and the GI50 (KM12) was > 100 µM (inactive). The GI50 (A498) was > 100 µM (inactive), the GI50 (RPMI-8226) was 57.7 µM (inactive) and the GI50 (SW-620) was 30.5 µM (inactive). The GI50 (U-251) was 61.9 µM (inactive), the GI50 (CCRF-CEM) was 50.8 µM (inactive) and the GI50 (SK-MEL-2) was > 100 µM (inactive). The GI50 (HCT-116) was 89.5 µM (inactive), the GI50 (ACHN) was 71.8 µM (inactive) and the GI50 (SK-OV-3) was > 100 µM (inactive). For the same compound, the GI50 (HT-29) was > 100 µM (inactive), the GI50 (Hs-578T) was 34.6 µM (inactive) and the GI50 (MOLT-4) was 17.4 µM (inactive). The GI50 (COLO 205) was 80.9 µM (inactive), the GI50 (Malme-3M) was 27.2 µM (inactive) and the GI50 (BT-549) was 27.5 µM (inactive). The GI50 (HCT-15) was 31.8 µM, the GI50 (MDA-MB-435) was > 100 µM (inactive) and the GI50 (MDA-MB-231) was 36.1 µM (inactive). The GI50 (SK-MEL-28) was > 100 µM (inactive), the GI50 (NCI/ADR-RES) was 57.8 µM (inactive) and the GI50 (OVCAR-5) was > 100 µM (inactive). The GI50 (SF-295) was 98.4 µM (inactive), the GI50 (OVCAR-8) was 28.8 µM (inactive) and the GI50 (OVCAR-4) was 25.4 µM (inactive). For the same compound, the GI50 (SN12C) was > 100 µM (inactive), the GI50 (M14) was 88.5 µM (inactive) and the GI50 (SNB-19) was > 100 µM (inactive). For the same compound, the GI50 (CAKI-1) was > 100 µM (inactive), the GI50 (HCC 2998) was > 100 µM (inactive) and the GI50 (OVCAR-3) was 26.7 µM (inactive). The GI50 (UACC-62) was 77.6 µM (inactive).
In the case of `C=C1C(=O)[C@@]23CC1C(O)[C@@H](OC(C)=O)[C@@H]2C1(C)C(OC(C)=O)C[C@@H](OC(C)=O)C(C)(C)[C@@H]1C[C@H]3OC(C)=O` (some centres not stated), the GI50 (T47D) is reported as 2.12 µM (inactive), the GI50 (MCF7) is reported as 2.58 µM (inactive) and the GI50 (DU-145) is reported as > 10 µM (inactive). The GI50 (NCI-H226) was > 10 µM (inactive), the GI50 (786-0) was 5.52 µM (inactive) and the GI50 (PC-3) was > 10 µM (inactive). The GI50 (MDA-N) was 3.85 µM (inactive), the GI50 (HOP-62) was > 10 µM (inactive) and the GI50 (A498) was > 10 µM (inactive). The GI50 (ACHN) was > 10 µM (inactive), the GI50 (Hs-578T) was 2.9 µM (inactive) and the GI50 (LOX IMVI) was 6.35 µM (inactive). For the same compound, the GI50 (BT-549) was 1.47 µM (inactive), the GI50 (HCT-15) was 2.6 µM and the GI50 (NCI/ADR-RES) was > 10 µM (inactive). For the same compound, the GI50 (SN12C) was 3.77 µM (inactive), the GI50 (CAKI-1) was 6.27 µM (inactive) and the GI50 (HCC 2998) was > 10 µM (inactive).
